# Legend:
# Format in all cases: in vivo
# [1] = system: velvetleaf (Abutilon theophrasti, ABUTH); assay: Test A pre-emergence, velvetleaf; details: after 13 d
# Procedure, shortened: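 After sowing in pots and a single day of glasshouse cultivation, the soil was treated with an aqueous spray of the compound (acetone/water 50:50, 0.5% Tween 20) giving 15.625, 62.5 or 250 g/ha. Evaluation after 13 d used a scale where 0 meant no damage and 100 total damage.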
# corn (Zea mays, ZEAMX) = assay: Test A post-emergence, corn; details: after 13 d
# Procedure, shortened: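 Visual damage rating (0 no damage to 100 total damage) was made 13 d after spraying. The spray was 15.625, 62.5 or 250 g/ha in 50:50 acetone/water with 0.5% Tween 20, applied to 8-day-old glasshouse plants kept at 24/16° C, 14 h light and 65% humidity.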
# plants = assay: Test D post-emergence, other plants of Tables D2 and D4; details: "Cereals" Postemergent, evaluated after 15 d
# Protocol: A formulation containing 50 g/L of the test chemical was prepared by dissolving the active ingredient in a mixture of organic solvents and emulsifier, details of which are provided in the table. This formulation was then mixed with a small, variable amount of acetone to aid dissolution, before addition of a 0.2% v/v aqueous solution of an adjuvant, as the aqueous diluent, to form an aqueous spray solution which contains a predetermined concentration of the active ingredient.
# This aqueous spray solution was then sprayed onto plants including maize and wheat that had been seed treated with a herbicide safener, after one day's cultivation (for pre-emergence) or after about 12 days' cultivation (for post-emergence). The plants were grown from seeds sown in standard soil, placed in a glasshouse under controlled conditions (at 24/18° C. or 20/16° C., day/night; 16 h light; 65% humidity). After spray application the plants were then grown in a glasshouse under the same conditions and watered twice daily. After 15 d for post-emergence and 20 DAA for pre-emergence the test was evaluated (100=total damage to plant; 0=no damage to plant).
compound,measurement,setting,value
CN1CC(c2cc(C(F)(F)F)n(C)n2)C(C(=O)Nc2ccc(F)cc2F)C1=O (racemic) [Compound 6],damage to plant (100=total damage; 0=no damage) ABUTH,[1]; Pre-Emergence at 15.625 g/ha,80
same,damage to plant (100=total damage; 0=no damage) ABUTH,[1]; Pre-Emergence at 62.5 g/ha,70
same,damage to plant (100=total damage; 0=no damage) ABUTH,[1]; Pre-Emergence at 250 g/ha,70
same,damage to plant (100=total damage; 0=no damage) ZEAMX,"corn (Zea mays, ZEAMX); Post-Emergence at 15.625 g/ha",10
same,damage to plant (100=total damage; 0=no damage) ZEAMX,"corn (Zea mays, ZEAMX); Post-Emergence at 62.5 g/ha",20
same,damage to plant (100=total damage; 0=no damage) ZEAMX,"corn (Zea mays, ZEAMX); Post-Emergence at 250 g/ha",60
same,ALOMY damage rating (100=total damage to plant; 0=no damage to plant),plants; Rates 130,0
same,ALOMY damage rating (100=total damage to plant; 0=no damage to plant),plants; Rates 250,0
same,ALOMY damage rating (100=total damage to plant; 0=no damage to plant),plants; Rates 500,0
same,AVEFA damage rating (100=total damage to plant; 0=no damage to plant),plants; Rates 130,0
same,AVEFA damage rating (100=total damage to plant; 0=no damage to plant),plants; Rates 250,0
same,AVEFA damage rating (100=total damage to plant; 0=no damage to plant),plants; Rates 500,10
same,BEAVA damage rating (100=total damage to plant; 0=no damage to plant),plants; Rates 130,0
same,BEAVA damage rating (100=total damage to plant; 0=no damage to plant),plants; Rates 250,0
same,BEAVA damage rating (100=total damage to plant; 0=no damage to plant),plants; Rates 500,0
same,BROTE damage rating (100=total damage to plant; 0=no damage to plant),plants; Rates 130,0
same,BROTE damage rating (100=total damage to plant; 0=no damage to plant),plants; Rates 250,0
same,BROTE damage rating (100=total damage to plant; 0=no damage to plant),plants; Rates 500,10
same,BRSNN damage rating (100=total damage to plant; 0=no damage to plant),plants; Rates 130,0
same,BRSNN damage rating (100=total damage to plant; 0=no damage to plant),plants; Rates 250,0
same,BRSNN damage rating (100=total damage to plant; 0=no damage to plant),plants; Rates 500,10
same,CHEAL damage rating (100=total damage to plant; 0=no damage to plant),plants; Rates 130,0
same,CHEAL damage rating (100=total damage to plant; 0=no damage to plant),plants; Rates 250,0
same,CHEAL damage rating (100=total damage to plant; 0=no damage to plant),plants; Rates 500,0
same,GALAP damage rating (100=total damage to plant; 0=no damage to plant),plants; Rates 130,0
same,GALAP damage rating (100=total damage to plant; 0=no damage to plant),plants; Rates 250,10
same,GALAP damage rating (100=total damage to plant; 0=no damage to plant),plants; Rates 500,20
same,HORVW damage rating (100=total damage to plant; 0=no damage to plant),plants; Rates 130,0
same,HORVW damage rating (100=total damage to plant; 0=no damage to plant),plants; Rates 250,10
same,HORVW damage rating (100=total damage to plant; 0=no damage to plant),plants; Rates 500,30
same,KCHSC damage rating (100=total damage to plant; 0=no damage to plant),plants; Rates 130,0
same,KCHSC damage rating (100=total damage to plant; 0=no damage to plant),plants; Rates 250,0
same,KCHSC damage rating (100=total damage to plant; 0=no damage to plant),plants; Rates 500,10
same,LOLPE damage rating (100=total damage to plant; 0=no damage to plant),plants; Rates 130,0
same,LOLPE damage rating (100=total damage to plant; 0=no damage to plant),plants; Rates 250,0
same,LOLPE damage rating (100=total damage to plant; 0=no damage to plant),plants; Rates 500,0
same,POAAN damage rating (100=total damage to plant; 0=no damage to plant),plants; Rates 130,0
same,POAAN damage rating (100=total damage to plant; 0=no damage to plant),plants; Rates 250,0
same,POAAN damage rating (100=total damage to plant; 0=no damage to plant),plants; Rates 500,10
same,POLCO damage rating (100=total damage to plant; 0=no damage to plant),plants; Rates 130,0
same,POLCO damage rating (100=total damage to plant; 0=no damage to plant),plants; Rates 250,0
same,POLCO damage rating (100=total damage to plant; 0=no damage to plant),plants; Rates 500,0
same,SINAR damage rating (100=total damage to plant; 0=no damage to plant),"plants; SINAR, Rates 500",40
same,STEME damage rating (100=total damage to plant; 0=no damage to plant),plants; Rates 130,0
same,STEME damage rating (100=total damage to plant; 0=no damage to plant),plants; Rates 250,0
same,STEME damage rating (100=total damage to plant; 0=no damage to plant),plants; Rates 500,10
same,VERPE damage rating (100=total damage to plant; 0=no damage to plant),plants; Rates 130,0
same,VERPE damage rating (100=total damage to plant; 0=no damage to plant),plants; Rates 250,10
same,VERPE damage rating (100=total damage to plant; 0=no damage to plant),plants; Rates 500,20

# — US20220281848A1, “PYRAZOLE-SUBSTITUTED PYRROLIDINONES AS HERBICIDES” (FMC Corporation, priority 2019, published 2022)
